Results published in patent US20100113535A1, “TREATMENT OF PRESBYOPIA WITH ALPHA- PICOLINIC ACID AND ITS ANALOGS” (The Department of Veterans Affairs Technology Transfer …, priority 2005, published 2010).
Read-outs that look alike come from different tables or passages of the source.

Legend:
[1] = test system: porcine lens epithelial (PLE) cells; assay: Toxicity of PA and its analogs to PLE cell growth (cell counts, 50% inhibitory concentration); type: cell-based; details: for IC50: Sus scrofa, 120 hours (five days) with substance, treated cell count equal to 50% of control
Method: FIG. 5. Toxicity of Picolinic Acid and its analogs in Pig Lens Epithelial Cells. Pig lens epithelial cells were plated in quadruplicate in 24 well trays at 5000 cells/well using minimal essential media plus 10% fetal calf serum (10% FCS MEM) with antibiotics. At 24 hours after plating, substances were added with a media change, at appropriate concentrations. Cells were allowed to grow for an additional 120 hours in the presence of the various substances. Cells were then counted, four dishes, in duplicate, and the cell counts were expressed as a percentage of the control cell counts.
Growth curve data were obtained from cells plated without any agents. Cell counts were performed daily on a total of eight wells per point, by combining four wells per count and performing counts in duplicate.
The toxicity of PA and its analogs to the PLE cells was tested according to the method of Senderoff et al. (66) PLE cells were plated in 24 well trays at 5000 cells per well in 1 mL of tissue culture medium (see above). The medium was changed at 24 hours, and new medium containing the analogs was added. Five days after addition of substances, cell counts were performed using a total of four wells per point, by combining two wells per count, and performing counts in duplicate. Results were expressed as a percentage of the untreated or control cell counts.

PLE cells = assay: Induction of apoptosis in PLE cells (DNA fragmentation detection kit); type: cell-based, porcine; details: for effect on monolayer growth, floating cells and DNA laddering staining: 48 hours, 3 mM picolinic acid, 0.3 mM fusaric acid; for state of cells at 72 hours: 3 mmol/L PA, 0.3 mmol/L FA, results not shown; for induction of apoptosis in PLE cells: discussion statement
Method: FIG. 6. Induction of Apoptosis in PLE cells. PLE cells were grown in 35 mm dishes in tissue culture. Analogs were added to media 24 hours after cells were plated. After 48 hours of incubation, floating or supernatant cells were spun onto slides and stained using the DNA fragmentation kit. The conditions are as follows: A. Control monolayer; B. Control stained supernatant; C. 3 mM picolinic acid monolayer; D. 3 mM picolinic acid stained supernatant; E. 0.3 mM fusaric acid monolayer; F. 0.3 mM fusaric acid stained supernatant.
The ability of PA and its analogs to induce apoptosis was detected with the DNA fragmentation detection kit (Oncogene Research Products, Boston, Mass.). One of the molecular effects of apoptosis is the formation of oligonucleosomal DNA fragments by DNA laddering (67). The kit includes a Klenow DNA polymerase that labels 3′-OH terminals of DNA, which are formed in the laddering process. Incorporated biotinylated nucleotides are then detected with a chromogenic labeling system of streptavidin-horseradish peroxidase diaminobenzidine. Cells were plated in 35-mm wells at a density of 50,000 cells per well. 24 hours after plating, analogs were added concurrently with fresh media. Pictures were taken after 48 hours of exposure to the analogs. Floating cells were washed and placed in Saccomanno's fixative (Shandon, Pittsburgh, Pa.), centrifuged onto Superfrost slides (Fisher Scientific, Pittsburgh, Pa.) with a CytoSpin centrifuge (Shandon, Pittsburgh, Pa.), and stained according to the protocol given.
To test for the role of apoptosis in the toxicity of PA and its analogs, the PLE cells were exposed to 0.3 mmol/L FA and 3 mmol/L of PA.

corneal endothelium = assay: Toxicity in corneal endothelium (Janus Green staining of pig corneas); details: for Janus Green staining relative to untreated control: 48 hours, corneal endothelium in 2% FCS M199; for Avg Abs650/SD (Janus Green stain eluted from trephine cut-outs of treated corneas): 48 hr in 2% FCS M-199, PA 3 mM, FA 0.3 mM, absorbance at 650 nm
Method: Testing of Toxicity in Corneal endothelium: To test for the effects of PA and FA on corneal endothelium, fresh corneas from pig eyes were aseptically dissected out, with a 2 mm scleral ring and placed in 2% FCS M-199 medium with antibiotics, as M-199 medium has previously been used for corneal experiments (84).
Times of incubation and concentrations which were used in the apoptosis experiment were implemented, i.e. 48 hours at 3 mM PA and 0.3 mM FA. Serum concentration of 2% was employed to maintain the corneal cells without undo stimulation. Corneas were rinsed with Hanks Balanced Salt Solution (HBSS) and stained for 90 seconds with 0.2 mL 1% Janus Green (85) in HBSS as a test for viability. The corneas were again rinsed. Negative controls were set up by placing corneas in 100% ethanol for 5 minutes prior to addition of Janus Green, to give staining in 100% “damaged” corneas. Using an 8 mm trephine, the central section of the cornea was punched out, and the dye was eluted with 2 ml 100% ethanol and the absorbance was measured at 650 nm. The Janus Green staining experiment of corneas was repeated twice. Duplicate samples were used for drug conditions and triplicate samples for controls. Janus green staining was also carried out on fresh cornea, for comparison purposes.

WI-38 cells = details: 0.5 mM fusaric acid, cited from earlier work
[2] = from FIG. 5, read-out: IC50 μg/mL
[3] = from FIG. 5, read-out: IC50 mmol/L

SMILES | IC50 [1, 2] [µg/mL] | IC50 [1, 3] [mmol/L] | times less toxic than PA ([1]; from IC50 data) [times] | effect on monolayer growth, floating cells and DNA laddering staining (PLE cells) | effect on monolayer growth, floating cells and DNA laddering staining (PLE cells; listed as PA) | state of cells at 72 hours (PLE cells) | state of cells at 72 hours (PLE cells; listed as PA) | induction of apoptosis in PLE cells (PLE cells) | Janus Green staining relative to untreated control (corneal endothelium) | Avg Abs650/SD (Janus Green stain eluted from trephine cut-outs of treated corneas) (corneal endothelium) | effect on monolayer growth, floating cells and DNA laddering staining (PLE cells; listed as FA) | times more toxic than PA (on concentration basis) ([1]; from IC50 data) | viability of confluent WI-38 cells (WI-38 cells; confluent cells, 48 hour incubation) | decrease in viability of logarithmically growing WI-38 cells (WI-38 cells; logarithmically growing cells, by 30 hours) [%]
O=C(O)c1cccnc1 [Nicotinic acid, nicotinic acid] | 539 | 4.38 |  |  |  |  |  |  |  |  |  |  |  | 
O=C(O)c1cccc(C(=O)O)n1 [Dipicolinic acid] | 185 | 1.11 | 2.5 |  |  |  |  |  |  |  |  |  |  | 
O=C(O)c1ccccn1 [Picolinic acid] | 55.3 | 0.449 |  | inhibits growth of the monolayer with few floating cells | inhibition of cell growth but little cell death | many floating cells | very few cells were still attached | rapidly induced apoptosis | stained less than the untreated control | 0.321 ± 0.041 |  |  |  | 
CCCCc1ccc(C(=O)O)nc1 [Fusaric acid, fusaric acid] | 5.6 | 0.031 |  | many floating cells, with strong nuclear staining |  | no living cells were seen |  | rapidly induced apoptosis | stained less than the untreated control | 0.287 ± 0.011 | significant cell death by the apoptotic pathway | about 15 times | no significant drop in viability | 76
